The source of these data is patent US12551449B2, “Tunable degradation in hydrogel microparticles” (LIKARDA, INC., priority 2019, dated 2026).

The conditions of data set [1]: thiol group(s); cited from earlier work.
Data set [2] relates to canine islets. Put plainly: Cytotoxicity of calcium (CSS component) on canine islets, propidium iodide staining. It counts as cell-based. As for the experimental part:
The cytotoxicity of calcium, a component in the CSS process, was tested by exposing canine islets to solutions containing either 100 mM or 200 mM calcium chloride, 10 mM HEPES buffer, and 20% PEGDA, MW 3,400 Da (Laysan Bio, Inc.) for 5, 10 or 15 minutes. A group was also exposed to 100 mM calcium chloride without PEGDA to evaluate the effect of calcium alone. Islets were suspended at approximately 5,000 IEQ/mL in the test solutions to emulate the high cell loading density associated with the encapsulation process. After calcium exposure, islets were washed twice with supplemented CMRL 1066 islet media and then incubated at 37° C. and 5% CO2 for 3 hours prior to assessment.
(§1) Dead cells were identified using propidium iodine staining and fluorescence microscopy. Fluorescence micrographs were captured with a Cytation 5 Imaging Multi-Mode Reader (Biotek Instruments, Inc, 531/647 nm ex/em). Cell death was quantified by calculating the ratio of red (dead) pixels to total islet pixels using Adobe Photoshop. Twenty-five individual islets were analyzed per group and were distinguished from non-islet tissues via dithizone staining. Results are reported as the average viable cell fraction and normalized to islet viability of the matched, untreated controls (i.e., islet from the same batch in culture medium).

In data set [3] the test system is canine islets. In words: Cytotoxicity of UV light and photoinitiator on canine islets. It counts as cell-based. As to conditions: 10 minutes UV ~40 mW/cm^2. The procedure: as §1
For PEGDA and methacrylated hyaluronic acid (MeHA) microparticles, photocrosslinking was utilized. Thus, studies examining the toxicity of ultraviolet light (UV) and the photoinitiator were first conducted. Canine islets were suspended in Dulbecco's phosphate buffered saline (DPBS) containing 0, 0.025 or 0.05% (w/v) of the photoinitiator, IRGACURE® 2959. Approximately 50 IEQ were loaded into wells of a 24-well plate and irradiated with long-wave ultraviolet (UV) light for 3, 5 or 10 minutes. […] Cell death was evaluated via propidium iodide staining and quantified as described in the previous section.

Consider `SCCSCCS` [2,2'-thiodiethanethiol], for which the pKa in data set [1] is 9.4-9.5.
Turning to `O=C(CS)OCCOC(=O)CS` [Glycol dimercaptoacetate], the pKa in data set [1] was 7.9-8.1.
In the case of Glyceryl dithioglycolate, the pKa in data set [1] is reported as 7.9-8.1.
For the compound `[Ca+2].[Cl-].[Cl-]` [calcium, calcium chloride], the “exposure time tolerated by islets” value in the data set with canine islets [2] (100 mM calcium in concentrated, viscous PEGDA solution) is on record as “at least 10 minutes”. Further, the “viability compared to controls” value with canine islets [2] (100 mM calcium without PEGDA, 15 minutes) is 97.6%. The cytotoxicity to islets entry with canine islets [2] (200 mM calcium) is on record as “rapidly cytotoxic”. The “viability compared to matched, untreated controls” value in the data set with canine islets [2] (100 or 200 mM calcium with PEGDA or 100 mM calcium alone, 5 minutes exposure) is on record as “above 97.5%”.
`N[C@H](CS)CCS` [(S)-2 Aminobutane 1,4 dithiol]: the pKa in data set [1] is on record as 8.5.
Consider `SCCOCCOCCOCCOCCOCCS` [Hexaethhylene glycol dithiol], for which the pKa in data set [1] is reported as 10.5-10.7.
As to `SCCOCCS` [2-mercaptoethyl ether], the pKa in data set [1] was 10.5-10.7.
As for `CC(C)(O)C(=O)c1ccc(OCCO)cc1` [IRGACURE® 2959, 2-Hydroxy-4′-(2-hydroxyethoxy)-2-methylpropiophenone], the viable cell fraction amounted to 94.5% in the data set on canine islets [3] (0.025% (w/v)) and 87.2% in the data set on canine islets [3] (0.05% (w/v)).
Turning to `O=C(CCS)OCCOC(=O)CCS` [Glycol di(3mercaptopropionate)], the pKa in data set [1] is recorded as 9.4-9.5.
